Like-named read-outs stand apart in the source and are kept apart here. Where no end group is shown, it is not given here.
How the values were obtained:
[1] = system: Fusarium proliferatum; assay: Co-incubation (oCelloScope) assay, F. proliferatum conidial germination; type: cell-based
[2] = system: Botrytis (Strain B05.10); assay: Botrytis inhibition assay (resazurin assay); type: cell-based; details: for inhibition at 1 µM: tested alone at 1 μM
[3] = system: Fusarium oxysporum f. sp. lycopersici (Saccardo) Snyder et Hansen CBS 167.30; assay: Resazurin plate co-incubation assay, F. oxysporum; type: cell-based; details: for Inhibition: 50 micromolar; for Summary of CGI factor spectrum of activity: Fusarium oxysporum
[4] = system: Pseudoperonospora cubensis; assay: Pseudoperonospora cubensis (cucurbit downy mildew) leaf disk assay; type: in vivo; details: for Summary of CGI factor spectrum of activity: Downy Mildew
[5] = system: Fusarium graminearum (Gibberella zeae); type: cell-based; details: for Inhibition: 50 micromolar; for Summary of CGI factor spectrum of activity: Fusarium graminearum
[6] = system: Botrytis cinerea b05.10; type: cell-based
[7] = tested alone at 0.2 ug/ml, 24 hours at 23° C.
[8] = tested alone at 2 ug/ml, 24 hours at 23° C.
[9] = read-out: Percent Inhibition EXP23002594
[10] = read-out: Percent Inhibition EXP23002662
[11] = tested alone at 5 uM, 24 hours at 23° C.
[12] = tested alone at 0.02 ug/ml, 24 hours at 23° C.
[13] = tested alone at 0.5 uM, 24 hours at 23° C.
[14] = tested alone at 1 uM, 24 hours at 23° C.
[15] = tested alone at 0.25 uM, 24 hours at 23° C.
[16] = 10 micromolar, 24 hours at 20° C.
[17] = 100 micromolar, 24 hours at 20° C.
[18] = Botrytis cinerea, at least one concentration tested

## O=C(Nc1ccccc1-c1ccc(Cl)cc1)c1cccnc1Cl [Boscalid]
[1]; [7]
  Inhibition of conidial germination: neither boscalid nor trifloxystrobin showed any inhibition and No
[1]; [8]
  Inhibition of conidial germination: neither boscalid nor trifloxystrobin showed any inhibition and no inhibition and No

## CC[C@H](C)C[C@H](C)CCCCCCCCC(=O)N[C@H]1C[C@@H](O)[C@@H](NCCN)NC(=O)[C@@H]2[C@@H](O)CCN2C(=O)[C@H]([C@H](O)CCN)NC(=O)[C@H]([C@H](O)[C@@H](O)c2ccc(O)cc2)NC(=O)[C@@H]2C[C@@H](O)CN2C(=O)[C@H]([C@@H](C)O)NC1=O [Caspofungin]
[2]; read-out: Percent Inhibition EXP23002534
  inhibition at 1 µM: 1.08%
[2]; [9]
  inhibition at 1 µM: 98.7%
[2]; [10]
  inhibition at 1 µM: 3.1%

## Cc1cc(C2CC2)nc(Nc2ccccc2)n1 [Cyprodinil]
[2]; [9]
  inhibition at 50 µM: 73.6%
[2]; [10]
  inhibition at 50 µM: 53.7%
  inhibition at 100 µM: 74.8%

## N#Cc1c[nH]cc1-c1cccc(Cl)c1Cl [Fenpiclonil]
[1]; [11]
  Inhibition of conidial germination: did not inhibit conidial germination and No
[1]; tested alone at 10 uM, 24 hours at 23° C.
  Inhibition of conidial germination: No
[1]; tested alone at 50 uM, 24 hours at 23° C.
  Inhibition of conidial germination: Yes

## N#Cc1c[nH]cc1-c1cccc2c1OC(F)(F)O2 [Fludioxonil]
[1]; [12]
  Inhibition of conidial germination: did not show any inhibition and No
[1]; [7]
  Inhibition of conidial germination: No
[1]; [8]
  Inhibition of conidial germination: Yes

## CC1(C)CCC(Cc2ccc(Cl)cc2)C1(O)Cn1cncn1 (stereo not shown) [Metconazole]
[1]; [12]
  Inhibition of conidial germination: did not show any inhibition and No
[1]; [7]
  Inhibition of conidial germination: No
[1]; [8]
  Inhibition of conidial germination: inhibited fungal growth and Yes

## C[C@@H]1C/C=C/C=C/C=C/C=C/[C@H](O[C@@H]2O[C@H](C)[C@@H](O)[C@H](N)[C@@H]2O)C[C@@H]2O[C@](O)(C[C@@H](O)C[C@H]3O[C@@H]3/C=C/C(=O)O1)C[C@H](O)[C@H]2C(=O)O [Natamycin]
[1]; [11]
  Inhibition of conidial germination: did not show any inhibition
[1]; tested alone at 5 ug/ml, 24 hours at 23° C.
  Inhibition of conidial germination: No
[1]; tested alone at 10 ug/ml, 24 hours at 23° C.
  Inhibition of conidial germination: No
[1]; tested alone at 100 ug/ml, 24 hours at 23° C.
  Inhibition of conidial germination: inhibited fungal growth and Yes
[2]; Table 20, tested alone at 100 μM (positive control), read-out: Percent Inhibition (Median)
  inhibition at 100 µM: 101%
[2]; tested alone at 100 μM (positive control 1), read-out: Percent Inhibition EXP23002534
  inhibition at 100 µM: 100%
[2]; tested alone at 100 μM (positive control 1), read-out: Percent Inhibition EXP23002594
  inhibition at 100 µM: 101%
[2]; tested alone at 100 μM, read-out: Percent Inhibition EXP23002662
  inhibition at 100 µM: 101%

## CON=C(C(=O)OC)c1ccccc1CON=C(C)c1cccc(C(F)(F)F)c1 [Trifloxystrobin]
[1]; [7]
  Inhibition of conidial germination: neither boscalid nor trifloxystrobin showed any inhibition and No
[1]; [8]
  Inhibition of conidial germination: neither boscalid nor trifloxystrobin showed any inhibition and No

## Drosomycin (DCLSGRYKGPCAVWDNETCRRVCKEEGRSSGHCSPSLKCWCEGC; disulfide (positions not given here); not fully specified; ends not checked; also: four intramolecular disulfide bridges, pairing not given here; UniProt P41964 27-70, looked up) [44-residue antifungal peptide with four intramolecular disulfide bridges, heterologously expressed in E. coli]
[1]; [13]
  Inhibition of conidial germination: did not show any inhibition and No
[1]; [14]
  Inhibition of conidial germination: did not show any inhibition and No
[1]; tested alone at 8 uM, 24 hours at 23° C.
  Inhibition of conidial germination: Yes

## RRRRRRRR [Pep462, Octaarginine (R8) cell-penetrating peptide (non-CGI peptide CONTROL)]
[1]; tested alone at 0.125 uM, 24 hours at 23° C.
  Inhibition of conidial germination: No
[1]; [15]
  Inhibition of conidial germination: No
[1]; [13]
  Inhibition of conidial germination: No
[1]; [14]
  Inhibition of conidial germination: effective and Yes
[3]
  Inhibition: Yes
  Summary of CGI factor spectrum of activity: Yes
[4]; 20 micromolar
  Inhibition (reduced disease severity of leaf discs): did not and No
[4]
  Summary of CGI factor spectrum of activity: No
[5]
  Inhibition: Yes
  Summary of CGI factor spectrum of activity: Yes
[6]; [16]
  Inhibition: inhibited and Yes
[6]; [17]
  Inhibition: inhibited and Yes
[6]; [18]
  Summary of CGI factor spectrum of activity: completely inhibited conidial germination and Yes

## WCGRPGQPC (REGION 1..9: note = Botrytis spp.) [Pep106, B. cinerea Alpha-pheromone]
[6]; [16]
  Inhibition: No
[6]; [17]
  Inhibition: No
[6]; [18]
  Summary of CGI factor spectrum of activity: No

## WCTWKGQPCW [Pep105]
[1]
  Inhibition of conidial germination: No and Yes
[6]
  Inhibition: No
  Summary of CGI factor spectrum of activity: No

## WHWLQLKPGQPMY (listed as Saccharomyces cerevisiae) [Pep107, S. cerevisiae Alpha-pheromone]
[3]
  Inhibition: Yes
  Summary of CGI factor spectrum of activity: Yes
[4]; 200 micromolar
  Inhibition (reduced disease severity of leaf discs): reduced the disease severity and Yes
[4]
  Summary of CGI factor spectrum of activity: Yes
[5]
  Inhibition: did not show any inhibition and No
  Summary of CGI factor spectrum of activity: No
[6]; [16]
  Inhibition: No
[6]; [17]
  Inhibition: moderate inhibition and Some
[6]; [18]
  Summary of CGI factor spectrum of activity: Yes

## WHWLQLKPGQPMYGGGGWHWLQLKPGQPMY (listed as Saccharomyces cerevisiae) [Pep302, S. cerevisiae Alpha-pheromone homodimer with GGGG linker]
[1]; [15]
  Inhibition of conidial germination: No
[1]; [13]
  Inhibition of conidial germination: No
[1]; [14]
  Inhibition of conidial germination: Yes

## WHWLQLKPGQPMYWHWLQLKPGQPMY (listed as Saccharomyces cerevisiae) [Pep301, S. cerevisiae Alpha-pheromone homodimer]
[1]; [15]
  Inhibition of conidial germination: No
[1]; [13]
  Inhibition of conidial germination: No
[1]; [14]
  Inhibition of conidial germination: Yes
[3]
  Inhibition: Yes
  Summary of CGI factor spectrum of activity: Yes
[4]; 20 micromolar
  Inhibition (reduced disease severity of leaf discs): reduced the disease severity and Yes
[4]
  Summary of CGI factor spectrum of activity: Yes
[5]
  Inhibition: Yes
  Summary of CGI factor spectrum of activity: Yes
[6]; [16]
  Inhibition: No
[6]; [17]
  Inhibition: active and Yes
[6]; [18]
  Summary of CGI factor spectrum of activity: completely inhibited conidial germination and Yes
